Values quoted from earlier work, collected in patent publication US9623047B2, “Composition and method for improving gastrointestinal health of equine” (Photo Finish Supplements, LLC, priority 2012, dated 2017).

How the values were obtained:
[1] = test system: tooth pulp and periapical tissue; conditions: protective barrier in dental repair and treatment

[Ca+2].[OH-].[OH-] [Ca(OH)2, calcium hydroxide]
anti-microbial action [1]: powerful anti-microbial action
effect on regrowth of damaged tissue [1]: significant stimulatory effect
DNA synthesis of tooth pulp cells (tooth pulp cells): increase
